Experimental data reported in US12492403B2, “Aptamers and the use thereof in the treatment of cancer” (FUNDACIÓN PARA LA INVESTIGACIÓN BIOMÉDICA DEL HOSPITAL …, priority 2018, dated 2025).

What was measured:
[1] = Stability in human plasma; type: in vitro ADME; details: 37° C., 72 hours
Protocol: (§1) FIGS. 7A and 7B. Stability of apMNKQ2. Chip Experion™ DNA 1K Analysis Kit (BioRad, USA) for analyzing the stability of apMNKQ2 with 1 unit, 0.5 units, and 0.25 units of DNase I (FIG. 7A). In FIG. 7B, the degradation of aptamer apMNKQ2 in human plasma at 0, 6, 16, 24, 48, and 72 hours is depicted.
The previously structured aptamer apMNKQ2 (1 μg) was incubated in the presence of 1 unit, 0.5 units, and 0.25 units of the enzyme DNase I (ThermoFisher Scientific, USA) in the buffer supplied by the company (10 mM Tris HCl, pH 7.5, 2.5 mM MgCl2, 0.1 mM CaCl2)) for 5 minutes at 37° C., and the reaction was then stopped by adding 1 μL of 50 mM EDTA (ThermoFisher Scientific, USA) and heating at 65° C. for 10 minutes. […] The samples were analyzed using an Experion™ DNA 1K Analysis Kit chip (BioRad, USA). The intensity of each of the bands corresponding to the aptamers treated or not treated with DNase I or plasmas was assessed and the percentage of stability was calculated by dividing the value obtained for each of the treated aptamers by the value obtained for the untreated aptamer.
Resistance of the aptamer to degradation by DNases was analyzed by incubating […] of structured apMNKQ2 in the presence of three concentrations of DNase I (Thermo Scientific, USA), as described in the Materials and Methods section. […]

MDA-MB-231 cells = assay: Transwell invasion assay with Matrigel; type: cell-based, human; details: MDA-MB-231, 400 nM
Protocol: (§2) FIGS. 13A, 13B and 13C. Effect of aptamer apMNKQ2 on the migration and invasion of breast cell lines. The three lines of study were seeded in 6-well plates at a density of 2.5×10^5 cells/well and transfected at 24 hours with apMNKQ2 at the established working concentrations. The cell lines were deprived of serum after 6 hours and collected and re-seeded (4×10^4 cells/well) after 24 hours in a transwell […], in order to perform migration and invasion assays, respectively. At 24 hours, the membranes of the transwell are stained with Hoechst and cells that have gone through the membranes are quantified using fluorescence microscopy (FIG. 13A). The boxes (FIGS. 13B and 13C) represent the mean±the maximum and minimum of 4-5 independent experiments (*p<0.05, **p<0.01, and ***p<0.001 with respect to the control aptamer AT).
(§3) Cell migration and invasion assays were performed using transwell (Corning, USA). […] After that time, they were collected, counted, and reseeded 4×10^4 cells in 300 μl of a serum-free complete medium inside the transwell (migration) or a transwell on which a layer of 100 μL of Matrigel (Corning, USA) (invasion) had previously been polymerized. […] Finally, two washes in PBS were performed, and 5 photographs of each membrane of the transwell were taken using a fluorescence microscope (Olympus IX70). The number of cells was analyzed using the imageJ program. […]

MDA-MB-468 cells = assay: Transwell invasion assay with Matrigel; type: cell-based, human; details: MDA-MB-468, 50 nM
Protocol: as §2, §3

DNase I = assay: Stability in the presence of DNase I; type: in vitro ADME, human; details: 1 unit of DNase I, 5 minutes at 37° C.
Protocol: as §1
In the context of the present invention, the term “incubated” is understood to mean being subjected to the assay conditions, specifically to incubation in a buffer with 10 mM Tris HCl, pH 7.5, 2.5 mM MgCl2, and 0.1 mM CaCl2).
In the context of the present invention, the term “1 unit of DNase I” is understood to mean the amount of DNase I which completely degrades 1 μg of DNA in 10 minutes at 37° C.
In the context of the present invention, “DNase I” is understood to mean the deoxyribonuclease-I protein encoded by the human DNASE1 gene. […]
The previously structured aptamer apMNKQ2 (1 μg) was incubated in the presence of 1 unit, 0.5 units, and 0.25 units of the enzyme DNase I (ThermoFisher Scientific, USA) in the buffer supplied by the company (10 mM Tris HCl, pH 7.5, 2.5 mM MgCl2, 0.1 mM CaCl2)) for 5 minutes at 37° C., and the reaction was then stopped by adding 1 μL of 50 mM EDTA (ThermoFisher Scientific, USA) and heating at 65° C. for 10 minutes. […] The samples were analyzed using an Experion™ DNA 1K Analysis Kit chip (BioRad, USA). […]

5′TGGGGTGGGCGGGCGGGGGTGGGGGTGGT-3′ (DNA, backbone and methylation of C not given here; further chemistry not fully specified) [apMNKQ2]
degradation in human plasma [1]: no degradation | invasion (transwell with Matrigel) (MDA-MB-231 cells): significant reduction of invasion | invasion (transwell with Matrigel) (MDA-MB-468 cells): significant reduction of invasion | stability (DNase I): 100%
